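Assay format: 96-well plates, 48-hour exposure. TGI marks complete inhibition of growth.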
Columns and labels:
Experiment in all cases: growth of human tumour cells (NCI), 48 h
M19-MEL melanoma = tested on: M19-MEL melanoma
RPMI-8226 leukemia = tested on: RPMI-8226 leukemia
NCI-H23 lung = tested on: NCI-H23 lung
COLO 205 colon = tested on: COLO 205 colon
EKVX NSCLC = tested on: EKVX NSCLC
786-0 renal = tested on: 786-0 renal
SNB-19 CNS = tested on: SNB-19 CNS
HCT-15 colon = tested on: HCT-15 colon
HCT-116 colon = tested on: HCT-116 colon
SK-OV-3 ovarian = tested on: SK-OV-3 ovarian
SF-295 CNS = tested on: SF-295 CNS
HCC-2998 colon = tested on: HCC-2998 colon
XF 498 CNS = tested on: XF 498 CNS
MALME-3M melanoma = tested on: MALME-3M melanoma
SK-MEL-5 melanoma = tested on: SK-MEL-5 melanoma
OVCAR-5 ovarian = tested on: OVCAR-5 ovarian
SNB-78 CNS = tested on: SNB-78 CNS
DLD-1 colon = tested on: DLD-1 colon
RXF 393 renal = tested on: RXF 393 renal
LOX IMVI melanoma = tested on: LOX IMVI melanoma
IGROV1 ovarian = tested on: IGROV1 ovarian
SK-MEL-2 melanoma = tested on: SK-MEL-2 melanoma
HT29 colon = tested on: HT29 colon
KM20L2 colon = tested on: KM20L2 colon
DMS 273 small cell lung = tested on: DMS 273 small cell lung
HOP-92 NSCLC = tested on: HOP-92 NSCLC
NCI-H460 lung = tested on: NCI-H460 lung
OVCAR-8 ovarian = tested on: OVCAR-8 ovarian
UO-31 renal = tested on: UO-31 renal
TK-10 renal = tested on: TK-10 renal
K-562 leukemia = tested on: K-562 leukemia
UACC-257 melanoma = tested on: UACC-257 melanoma
SF-539 CNS = tested on: SF-539 CNS
CCRF-CEM leukemia = tested on: CCRF-CEM leukemia
DMS 114 small cell lung = tested on: DMS 114 small cell lung
NCI-H226 lung = tested on: NCI-H226 lung
CAKI-1 renal = tested on: CAKI-1 renal
SK-MEL-28 melanoma = tested on: SK-MEL-28 melanoma
SR leukemia = tested on: SR leukemia
A549 NSCLC = tested on: A549 NSCLC
OVCAR-4 ovarian = tested on: OVCAR-4 ovarian
SNB-75 CNS = tested on: SNB-75 CNS
ACHN renal = tested on: ACHN renal
A498 renal = tested on: A498 renal
LXFL 529 NSCLC = tested on: LXFL 529 NSCLC
OVCAR-3 ovarian = tested on: OVCAR-3 ovarian
SW-620 colon = tested on: SW-620 colon
SN12C renal = tested on: SN12C renal
NCI-H522 lung = tested on: NCI-H522 lung
M14 melanoma = tested on: M14 melanoma
SF-268 CNS = tested on: SF-268 CNS
HOP-18 NSCLC = tested on: HOP-18 NSCLC
KM12 colon = tested on: KM12 colon
UACC-62 melanoma = tested on: UACC-62 melanoma
HL-60(TB) leukemia = tested on: HL-60(TB) leukemia
U251 CNS = tested on: U251 CNS
MOLT-4 leukemia = tested on: MOLT-4 leukemia
RXF-631 renal = tested on: RXF-631 renal
HOP-62 NSCLC = tested on: HOP-62 NSCLC

COc1ccc(OC)c(CCc2ccccc2CC(=O)O)c1
TGI (M19-MEL melanoma): > 100 µM
TGI (RPMI-8226 leukemia): > 100 µM
TGI (NCI-H23 lung): > 100 µM
TGI (COLO 205 colon): > 100 µM
TGI (EKVX NSCLC): > 100 µM
TGI (786-0 renal): > 100 µM
TGI (SNB-19 CNS): > 100 µM
TGI (HCT-15 colon): > 100 µM
TGI (HCT-116 colon): > 100 µM
TGI (SK-OV-3 ovarian): > 100 µM
TGI (SF-295 CNS): > 100 µM
TGI (HCC-2998 colon): > 100 µM
TGI (XF 498 CNS): > 100 µM
TGI (MALME-3M melanoma): > 100 µM
TGI (SK-MEL-5 melanoma): > 100 µM
TGI (OVCAR-5 ovarian): > 100 µM
TGI (SNB-78 CNS): > 100 µM
TGI (DLD-1 colon): > 100 µM
TGI (RXF 393 renal): > 100 µM
TGI (LOX IMVI melanoma): > 100 µM
TGI (IGROV1 ovarian): > 100 µM
TGI (SK-MEL-2 melanoma): > 100 µM
TGI (HT29 colon): > 100 µM
TGI (KM20L2 colon): > 100 µM
TGI (DMS 273 small cell lung): > 100 µM
TGI (HOP-92 NSCLC): > 100 µM
TGI (NCI-H460 lung): > 100 µM
TGI (OVCAR-8 ovarian): > 100 µM
TGI (UO-31 renal): > 100 µM
TGI (TK-10 renal): > 100 µM
TGI (K-562 leukemia): > 100 µM
TGI (UACC-257 melanoma): > 100 µM
TGI (SF-539 CNS): > 100 µM
TGI (CCRF-CEM leukemia): > 100 µM
TGI (DMS 114 small cell lung): > 100 µM
TGI (NCI-H226 lung): > 100 µM
TGI (CAKI-1 renal): > 100 µM
TGI (SK-MEL-28 melanoma): > 100 µM
TGI (SR leukemia): > 100 µM
TGI (A549 NSCLC): > 100 µM
TGI (OVCAR-4 ovarian): > 100 µM
TGI (SNB-75 CNS): > 100 µM
TGI (ACHN renal): > 100 µM
TGI (A498 renal): > 100 µM
TGI (LXFL 529 NSCLC): > 100 µM
TGI (OVCAR-3 ovarian): > 100 µM
TGI (SW-620 colon): > 100 µM
TGI (SN12C renal): > 100 µM
TGI (NCI-H522 lung): > 100 µM
TGI (M14 melanoma): > 100 µM
TGI (SF-268 CNS): > 100 µM
TGI (HOP-18 NSCLC): > 100 µM
TGI (KM12 colon): > 100 µM
TGI (UACC-62 melanoma): > 100 µM
TGI (HL-60(TB) leukemia): > 100 µM
TGI (U251 CNS): > 100 µM
TGI (MOLT-4 leukemia): > 100 µM

CCN(CC)CCCNc1nccc2c(C)c3[nH]c4ccncc4c(=O)c3cc12
TGI (RPMI-8226 leukemia): 13.7 µM
TGI (NCI-H23 lung): 7.34 µM
TGI (COLO 205 colon): 12.5 µM
TGI (EKVX NSCLC): 35.7 µM
TGI (786-0 renal): 11.9 µM
TGI (SNB-19 CNS): 28.4 µM
TGI (HCT-15 colon): > 100 µM
TGI (RXF-631 renal): 22 µM
TGI (HCT-116 colon): 2.03 µM
TGI (SK-OV-3 ovarian): 16 µM
TGI (SF-295 CNS): 28.4 µM
TGI (HCC-2998 colon): 13.4 µM
TGI (XF 498 CNS): 6.63 µM
TGI (MALME-3M melanoma): 14.8 µM
TGI (SK-MEL-5 melanoma): 14.1 µM
TGI (OVCAR-5 ovarian): 19.7 µM
TGI (SNB-78 CNS): 13.7 µM
TGI (DLD-1 colon): 21.8 µM
TGI (RXF 393 renal): 3.18 µM
TGI (LOX IMVI melanoma): 3.26 µM
TGI (IGROV1 ovarian): 21.7 µM
TGI (SK-MEL-2 melanoma): 9.34 µM
TGI (HT29 colon): 12.8 µM
TGI (KM20L2 colon): 40 µM
TGI (DMS 273 small cell lung): 11.8 µM
TGI (HOP-92 NSCLC): 7.64 µM
TGI (NCI-H460 lung): 7.04 µM
TGI (OVCAR-8 ovarian): 2.36 µM
TGI (UO-31 renal): 43.4 µM
TGI (TK-10 renal): 22.5 µM
TGI (K-562 leukemia): 13 µM
TGI (UACC-257 melanoma): 31.7 µM
TGI (SF-539 CNS): 11.2 µM
TGI (CCRF-CEM leukemia): 8.44 µM
TGI (DMS 114 small cell lung): 2.91 µM
TGI (NCI-H226 lung): 10.2 µM
TGI (CAKI-1 renal): 16.8 µM
TGI (SK-MEL-28 melanoma): 13.4 µM
TGI (SR leukemia): 2.23 µM
TGI (A549 NSCLC): 14.2 µM
TGI (OVCAR-4 ovarian): 3.07 µM
TGI (SNB-75 CNS): 12.6 µM
TGI (ACHN renal): 13 µM
TGI (HOP-62 NSCLC): 16.7 µM
TGI (A498 renal): 24 µM
TGI (LXFL 529 NSCLC): 11.4 µM
TGI (OVCAR-3 ovarian): 8.88 µM
TGI (SW-620 colon): 16.1 µM
TGI (SN12C renal): 8.9 µM
TGI (NCI-H522 lung): 1.86 µM
TGI (M14 melanoma): 9.64 µM
TGI (SF-268 CNS): 4.46 µM
TGI (HOP-18 NSCLC): 18.7 µM
TGI (KM12 colon): 15.5 µM
TGI (UACC-62 melanoma): 3.72 µM
TGI (HL-60(TB) leukemia): 8.58 µM
TGI (U251 CNS): 11.8 µM
TGI (MOLT-4 leukemia): 2.51 µM

CCCCCCCCCCCCCCCCCC(=O)NCC(COP(=O)([O-])OCC[N+](C)(C)C)OCC (stereo unspecified)
TGI (NCI-H23 lung): 34.6 µM
TGI (EKVX NSCLC): 38.7 µM
TGI (SNB-19 CNS): 0.326 µM
TGI (RXF-631 renal): 37.5 µM
TGI (SK-OV-3 ovarian): 33.7 µM
TGI (MALME-3M melanoma): 36.1 µM
TGI (SK-MEL-5 melanoma): 32.2 µM
TGI (LOX IMVI melanoma): 44.6 µM
TGI (KM20L2 colon): 0.71 µM
TGI (DMS 273 small cell lung): 0.284 µM
TGI (UO-31 renal): 33.8 µM
TGI (UACC-257 melanoma): 33 µM
TGI (SF-539 CNS): 31.6 µM
TGI (DMS 114 small cell lung): 32.9 µM
TGI (SK-MEL-28 melanoma): 32.5 µM
TGI (A549 NSCLC): 33.4 µM
